Test results from PMC4261083, “An atypical residue in the pore of Varroa destructor GABA-activated RDL receptors affects picrotoxin block and thymol modulation” (Insect Biochemistry and Molecular Biology, 2014).
Where a chain is given by its changes, count along the chain named. pIC50: −log10 of the molar value.

Key:
[1] = molecular target: T1, A20′S mutant Drosophila RDL receptor (Drosophila melanogaster, UniProt P25123, A319S); experiment: Picrotoxin inhibition of GABA responses, two electrode voltage clamp in Xenopus oocytes; assay type: cell-based
T1 construct: expressed in transfected cells; host or cells: Xenopus laevis oocytes injected with cRNA
T1 sequence (P25123 45-606 A319S): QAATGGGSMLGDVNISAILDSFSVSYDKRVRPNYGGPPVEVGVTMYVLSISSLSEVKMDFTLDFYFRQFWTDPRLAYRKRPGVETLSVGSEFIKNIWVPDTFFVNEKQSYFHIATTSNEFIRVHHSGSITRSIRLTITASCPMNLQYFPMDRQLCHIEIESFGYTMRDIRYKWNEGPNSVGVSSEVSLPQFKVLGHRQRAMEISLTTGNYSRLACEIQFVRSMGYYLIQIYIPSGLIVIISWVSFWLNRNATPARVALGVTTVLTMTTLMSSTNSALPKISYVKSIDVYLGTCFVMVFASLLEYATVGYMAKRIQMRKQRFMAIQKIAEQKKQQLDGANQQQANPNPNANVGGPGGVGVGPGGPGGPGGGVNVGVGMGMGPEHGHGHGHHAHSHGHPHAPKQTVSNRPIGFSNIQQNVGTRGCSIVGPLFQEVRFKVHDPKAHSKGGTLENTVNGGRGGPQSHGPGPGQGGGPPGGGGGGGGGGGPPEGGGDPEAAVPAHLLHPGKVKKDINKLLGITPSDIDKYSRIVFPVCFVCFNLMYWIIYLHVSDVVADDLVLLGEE
Experimental: (§1) X. laevis oocyte-positive females were purchased from NASCO (Fort Atkinson, Wisconsin, USA) and maintained according to standard methods. Harvested stage V-VI Xenopus oocytes were washed in four changes of ND96 (96 mM NaCl, 2 mM KCl, 1 mM MgCl2, 1 mM CaCl2, 5 mM HEPES, pH 7.5), de-folliculated in 1.5 mg ml^−1 collagenase Type 1A for approximately 2 h, washed again in four changes of ND96 and stored in ND96 containing 2.5 mM sodium pyruvate, 0.7 mM theophylline and […].
Drosophila RDL subunit cDNA (kindly gifted from N.Millar) was subcloned into pGEMHE for oocyte expression as previously described ([McGonigle and Lummis, 2010], [Millar et al., 1994]). Site directed mutagenesis was performed with the QuikChange mutagenesis kit (Agilent, La Jolla, CA). cRNA was transcribed in vitro from linearised pGEMHE cDNA template using the mMessage mMachine T7 Transcription kit (Ambion, Austin, Texas, USA). Stage V and VI oocytes were injected with 5 ng cRNA, incubated at 18 °C, and currents recorded 18–24 h post-injection.
Xenopus oocytes were clamped at −60 mV using an OC-725 amplifier (Warner Instruments, Connecticut, USA), Digidata 1322A and the Strathclyde Electrophysiology Software Package (Department of Physiology and Pharmacology, University of Strathclyde, UK), or using the Roboocyte (MultiChannel Systems). Currents were recorded at 5 kHz and filtered at a frequency of 1 kHz. Micro-electrodes were fabricated from borosilicate glass (GC120TF-10, Harvard Apparatus, Edenbridge, Kent, UK) using a one stage horizontal pull (P-87, Sutter Instrument Company, California, USA) and filled with 3 M KCl. Pipette resistances ranged from 1.0 to 2.0 MΩ. Oocytes were perfused with ND96 at a constant rate of 12 ml min^−1. Drug application was via a simple gravity fed system calibrated to run at the same rate.
(§2) Analysis and curve fitting was performed using Prism v5 (GraphPad Software, San Diego, California, USA). Concentration-response data for each oocyte was normalised to the maximum current for that oocyte. The mean and S.E.M. for a series of oocytes were fitted to the four parameter logistic equation in Prism.

[2] = molecular target: T2, 4M2 mutant Drosophila RDL receptor (N-7′H, T6′M, A20′S and A21′Q) (Drosophila melanogaster, UniProt P25123, A319S/A320Q/N292H/T305M); assay type: cell-based; conditions: 4M2 RDL
T2 construct: expressed in transfected cells; host or cells: Xenopus laevis oocytes injected with cRNA
T2 sequence (P25123 45-606 N292H/T305M/A319S/A320Q): T1 sequence (P25123 45-606 A319S) with N248H, T261M, A276Q
Experimental: as §1
Site directed mutagenesis was performed with the QuikChange mutagenesis kit (Agilent, La Jolla, CA). cRNA was transcribed in vitro from linearised pGEMHE cDNA template using the mMessage mMachine T7 Transcription kit (Ambion, Austin, Texas, USA). Stage V and VI oocytes were injected with 5 ng cRNA, incubated at 18 °C, and currents recorded 18–24 h post-injection.
Currents were recorded at 5 kHz and filtered at a frequency of 1 kHz. Micro-electrodes were fabricated from borosilicate glass (GC120TF-10, Harvard Apparatus, Edenbridge, Kent, UK) using a one stage horizontal pull (P-87, Sutter Instrument Company, California, USA) and filled with 3 M KCl. […] Oocytes were perfused with ND96 at a constant rate of 12 ml min^−1. Drug application was via a simple gravity fed system calibrated to run at the same rate.
as §2

Compound	pIC50 [1]	Picrotoxin pIC50 [1]	Effect of thymol on GABA-induced responses ([2]; 100 μM thymol, at some GABA concentrations)	Fold change in EC50 ([2]; GABA EC50 control vs +100 μM thymol)	% Imax ([2]; GABA concentration-response in presence of 100 μM thymol) [%]
picrotoxin	7.34	7.33 ± 0.13			
Cc1ccc(C(C)C)c(O)c1 [Thymol, thymol]			inhibition	3.0	52 ± 4
